{"source": "patent US12291581B2", "about": "“Serpin peptides and methods of using the same” (SERPIN PHARMA, LLC, priority 2012, dated 2025)", "key": {"LPS challenged mice": {"tested_on": "LPS challenged mice", "assay": "Mouse LPS challenge (sepsis/inflammation) model, serum TNF-alpha by ELISA", "format": "in vivo", "conditions": "for anti-inflammatory effect when administered to a mouse model of sepsis (FIG. 10): Table B peptides; for TNF-alpha levels in LPS challenged mice, alanine scanned SP16 peptides (FIG. 10B): compared with Dexamethasone positive control", "experimental": "FIGS. 10A and B. FIG. 10A presents exemplary peptides that were used to reduce TNF-alpha levels in mice subjected to an LPS challenge. […] The mice were treated with alanine scanned SP16 peptide. […] Based on this alanine screen, and without wishing to be bound by a theory, it appears that the C- and N-terminal amino acids contribute to the anti-inflammatory effect of the SP16 peptide. […] Groups of 3 animals were injected with 0.2 mg/kg peptide and subjected to LPS challenge. Serum TNF-alpha levels were determined by ELISA. Several peptides provided the same level of protection as 1 mg/kg Dexamethasone.\nThe ability of peptide drugs was tested to for their potential for the reduction of inflammatory cytokines following treatment with purified bacterial lipopolysaccharide (LPS)—a major component of bacterial cell wall of Gram-negative bacteria. A model of inflammation was used wherein mice were injected with LPS, which induced a transient immune response and a surge of serum inflammatory cytokines. The immune response peaks after 90 minutes and subsides after 24 hours. The levels of key serum inflammatory markers were compared between mice treated and untreated with LPS 90 minutes after injection.\nWe designed 18 different peptides based on the hAAT sequence (Accession #AAB59371), and had these synthesized using conventional FMOC chemistry. To assess in vivo anti-inflammatory and therapeutic potential, the peptides were tested in a mouse lipopolysaccharide (LPS) challenge model with serum TNFα levels as readout. Using dexamethasone as reference, groups of 3 animals were IP injected with 0.2 mg/kg peptide 2 hours prior to an LPS challenge, and serum TNFα levels determined 30 min after the LPS challenge, by ELISA. The best performing peptide reduced serum TNFα levels equivalent to those achieved with 1 mg/kg dexamethasone. Next, shortened versions of this peptide were synthesized, tested in the mouse LPS challenge model, and a 17 amino acid peptide, SP16, emerged as a lead development candidate for further characterization. Next, SP16 was tested in a lethal endotoxemia model, which models endotoxemia following acute radiation exposure, where Gram negative bacteria leaking from the gastro-intestinal system can cause lethal endotoxemia.\nMice were injected with 0.5, 0.1, 0.02 and 0.004 mg of each peptide. Mice were also treated with dexamethasone as a positive control and vehicle as a negative control. Two hours later each mouse was injected with LPS. Samples were taken 90 minutes after LPS injection.\nTo evaluate the effect of different amino acids in the SP16 peptide for the immunomodulating effect, we created an alanine screen. […] The peptides wherein the substitution occurred within amino acids 4-14 of SP16, appeared to maintain and rather improve their capacity to reduce TNF-alpha levels compared to the control Dexamethasone. The LPS mouse model is an established model for sepsis in humans and thus we conclude that peptides wherein the amino acids 1-3 and 15-17 are present, can be effectively used in humans to treat or prevent sepsis in conditions, such as burns or acute radiation, which expose humans to a high risk of developing endotoxemia."}, "[1]": {"tested_on": "111 in vitro assay targets (human receptors)", "assay": "Human receptor panning, GenSEP Explorer panel", "from_the_text": "In addition, we also performed a profile using human receptor panning. The GenSEP Explorer panel contains 111 in vitro assay targets carefully selected to assess drug/chemical biological activities. Assay categories include GPCRs, Voltage-Gated Ion Channels, Ligand-Gated Ion Channels, Neurotransmitter transporters, Nuclear Receptors and Steroids as well as a diverse set of biochemical targets including phosphodiesterases, kinases and other relevant enzymes."}, "hERG": {"molecular_target": "hERG (Homo sapiens, UniProt Q12809)", "sequence (Q12809 whole entry)": "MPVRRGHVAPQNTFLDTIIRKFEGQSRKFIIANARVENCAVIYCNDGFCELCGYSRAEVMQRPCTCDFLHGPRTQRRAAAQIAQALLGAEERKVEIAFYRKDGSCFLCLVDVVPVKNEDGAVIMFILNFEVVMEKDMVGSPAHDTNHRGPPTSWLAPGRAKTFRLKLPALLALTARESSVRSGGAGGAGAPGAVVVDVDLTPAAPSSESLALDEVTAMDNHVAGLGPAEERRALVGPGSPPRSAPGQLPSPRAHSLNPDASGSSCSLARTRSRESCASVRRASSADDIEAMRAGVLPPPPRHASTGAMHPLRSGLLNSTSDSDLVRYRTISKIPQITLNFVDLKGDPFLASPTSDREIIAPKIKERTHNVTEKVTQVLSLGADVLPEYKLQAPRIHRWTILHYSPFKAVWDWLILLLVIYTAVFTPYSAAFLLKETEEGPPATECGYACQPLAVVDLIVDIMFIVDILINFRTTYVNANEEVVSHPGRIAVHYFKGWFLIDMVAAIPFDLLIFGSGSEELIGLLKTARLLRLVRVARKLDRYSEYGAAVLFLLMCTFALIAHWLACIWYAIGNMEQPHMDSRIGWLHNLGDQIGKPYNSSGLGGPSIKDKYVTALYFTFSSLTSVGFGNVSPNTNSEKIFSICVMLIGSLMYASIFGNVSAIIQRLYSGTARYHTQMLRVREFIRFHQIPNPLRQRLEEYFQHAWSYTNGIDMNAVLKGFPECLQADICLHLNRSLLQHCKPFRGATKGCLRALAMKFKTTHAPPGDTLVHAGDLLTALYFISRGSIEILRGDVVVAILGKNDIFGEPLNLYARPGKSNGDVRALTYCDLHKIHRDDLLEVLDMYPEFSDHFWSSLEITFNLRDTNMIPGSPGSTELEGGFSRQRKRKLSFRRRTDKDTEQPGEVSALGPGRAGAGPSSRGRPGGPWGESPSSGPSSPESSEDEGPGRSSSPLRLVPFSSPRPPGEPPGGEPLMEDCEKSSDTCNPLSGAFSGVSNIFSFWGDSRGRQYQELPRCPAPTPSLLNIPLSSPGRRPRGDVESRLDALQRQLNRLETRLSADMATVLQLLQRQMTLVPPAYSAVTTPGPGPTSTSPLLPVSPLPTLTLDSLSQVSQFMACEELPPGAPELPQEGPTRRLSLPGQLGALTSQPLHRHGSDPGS", "format": "cell-based", "quoted_text": "The SP16 safety profile also included hERG data. […] The study was executed by Apredica, Boston, MA."}, "[2]": {"assay": "Pharmacokinetic profile after intravenous injection, plasma by LC/MS/MS", "format": "in vivo, rats", "conditions": "IV 5 mg/kg", "experimental": "In performing the assay, three normal rats were injected intravenously with 5 mg/kg SP16 and the plasma concentration of SP16 established at 8 time points following the injection. […] The assay was executed by Apredica, Boston, Mass."}, "NOD mice": {"tested_on": "NOD mice", "assay": "NOD mouse spontaneous autoimmune (type I) diabetes model", "format": "in vivo", "conditions": "groups of 12 NOD mice, vs scrambled control peptide", "experimental": "Groups of 12 animals were injected with SP16, hAAT or scrambled control peptide. Non-fasted blood glucose levels were measured twice a week and animals with two consecutive readings greater than 300 mg/dl were considered diabetic.\nNOD (non-obese diabetic) mice spontaneously develop overt, insulin-dependent type I diabetes. The NOD model is recommended by the FDA for preclinical testing of therapeutic agents for type I diabetes. Disease onset typically occurs at 12-14 weeks of age, with peri-insulitis detectable from about 4 weeks of age and developing into severe insulitis at 10 weeks of age. The autoimmune destruction of β-cells is thought to arise from dysregulation of multiple tolerance pathways, leading to islet infiltration with monocytes, predominantly CD4^+ and CD8^+ T cells, and insulitis, with subsequent hypoinsulinemia and hyperglycemia."}, "TLR-2": {"molecular_target": "T1, TLR-2 (Mus musculus, UniProt Q9QUN7)", "T1 construct": "host or cells: HEK-Blue mTLR2 (HEK293-derived reporter line, SEAP read-out)", "T1 sequence (Q9QUN7 25-784)": "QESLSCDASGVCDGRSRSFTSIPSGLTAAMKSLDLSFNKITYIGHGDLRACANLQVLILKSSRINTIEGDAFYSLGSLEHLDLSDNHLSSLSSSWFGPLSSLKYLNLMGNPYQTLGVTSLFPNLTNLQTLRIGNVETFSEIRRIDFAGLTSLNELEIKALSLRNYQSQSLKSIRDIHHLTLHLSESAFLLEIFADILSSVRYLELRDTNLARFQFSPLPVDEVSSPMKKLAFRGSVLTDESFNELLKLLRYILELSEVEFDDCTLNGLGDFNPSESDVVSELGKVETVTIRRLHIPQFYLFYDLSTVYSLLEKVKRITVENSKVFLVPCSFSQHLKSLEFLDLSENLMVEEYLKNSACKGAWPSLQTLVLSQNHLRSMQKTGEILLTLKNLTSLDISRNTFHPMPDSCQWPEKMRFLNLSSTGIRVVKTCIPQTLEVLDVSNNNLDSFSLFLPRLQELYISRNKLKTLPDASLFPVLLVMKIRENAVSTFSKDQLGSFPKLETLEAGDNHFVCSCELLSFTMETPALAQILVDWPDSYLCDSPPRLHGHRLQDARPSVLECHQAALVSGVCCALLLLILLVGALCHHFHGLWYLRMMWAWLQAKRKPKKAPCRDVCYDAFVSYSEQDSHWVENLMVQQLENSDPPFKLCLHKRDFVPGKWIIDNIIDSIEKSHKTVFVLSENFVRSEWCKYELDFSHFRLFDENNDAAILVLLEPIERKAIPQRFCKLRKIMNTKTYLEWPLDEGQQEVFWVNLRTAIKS", "assay": "TLR-2 indicator cell line assay (HEK-Blue mTLR2), secreted alkaline phosphatase", "format": "cell-based", "conditions": "20 μg/ml peptide, 24 hours", "experimental": "Graph summarizing representative data from assays with an engineered TLR-2 indicator cell line (HEK-Blue™ mTLR2, Invivogen). Cells were incubated with the indicated concentrations of peptide for 24 hours. Upon TLR2 activation, the cells secrete alkaline phosphatase which can be assayed. The assay was done in triplicate and averages with standard deviations are plotted.\nGraph summarizing data from an experiment where an engineered TLR-2 indicator cell line (HEK-Blue™ mTLR2, Invivogen) was used to test the impact of substituting amino acid residues of the SP16 peptide with alanine (“alanine scan”). Cells were incubated with 20 μg/ml of the indicated peptides for 24 hours. Upon TLR2 activation, the cells secrete alkaline phosphatase which can be assayed. The assay was done in triplicate and averages are plotted. Peptide sequences are shown in the following figure. *p<0.05, compared with scrambled control (SP34).\nWe also performed a peptide optimization assay using an alanine scan with the TLR-2 assay. Data was obtained using an experiment with an engineered TLR-2 indicator cell line (HEK-BLUE™ mTLR2, Invivogen). Cells were incubated with the 20 μg/ml of the indicated peptides for 24 hours. Upon TLR2 activation, the cells secrete alkaline phosphatase, which can be assayed. The assay was done in triplicate and averages are plotted. […]"}}, "note": "“Also recorded” adds a separate entry of the source.", "data": [{"compound": "V K F N K P F V F L M I A A A T K (VKFNKPFVFLMIAAATK; listed as Homo sapiens) [SP49, alanine scanned SP16 peptide]", "values": [{"measurement": "anti-inflammatory effect when administered to a mouse model of sepsis (FIG. 10)", "setting": "LPS challenged mice", "value": "particularly good anti-inflammatory effect"}, {"measurement": "TNF-alpha levels in LPS challenged mice, alanine scanned SP16 peptides (FIG. 10B)", "setting": "LPS challenged mice", "value": "reduce TNF-alpha levels more than Dexamethasone"}]}, {"compound": "CC[C@H](C)[C@H](NC(=O)[C@H](CCSC)NC(=O)[C@H](CC(C)C)NC(=O)[C@H](Cc1ccccc1)NC(=O)[C@@H](NC(=O)[C@H](Cc1ccccc1)NC(=O)[C@@H]1CCCN1C(=O)[C@H](CCCCN)NC(=O)[C@H](CC(N)=O)NC(=O)[C@H](Cc1ccccc1)NC(=O)[C@H](CCCCN)NC(=O)[C@@H](N)C(C)C)C(C)C)C(=O)N[C@@H](CCC(=O)O)C(=O)N[C@@H](CCC(N)=O)C(=O)N[C@@H](CC(N)=O)C(=O)N[C@H](C(=O)N[C@@H](CCCCN)C(=O)O)[C@@H](C)O", "note": "[SP16]", "values": [{"measurement": "effect on the whole GenSEP Explorer panel", "setting": "[1]; 111 human receptors", "value": "not able to identify any hits; also recorded: no effect on 111 human receptors"}, {"measurement": "Percent inhibition", "setting": "[1]; Brain/gut peptides, 15 receptors tested", "value": "Insignificant"}, {"measurement": "Percent inhibition", "setting": "[1]; Cell-Based, Functional, 1 receptor tested", "value": "Insignificant"}, {"measurement": "Percent inhibition", "setting": "[1]; Enzymes, 20 receptors tested", "value": "Insignificant"}, {"measurement": "Percent inhibition", "setting": "[1]; Enzymes, Kinases, 11 receptors tested", "value": "Insignificant"}, {"measurement": "Percent inhibition", "setting": "[1]; Growth factors & hormones, 2 receptors tested", "value": "Insignificant"}, {"measurement": "Percent inhibition", "setting": "[1]; Ion Channels, 8 receptors tested", "value": "Insignificant"}, {"measurement": "Percent inhibition", "setting": "[1]; Neurotransmitter Related, 47 receptors tested", "value": "Insignificant"}, {"measurement": "Percent inhibition", "setting": "[1]; Second Messengers, 3 receptors tested", "value": "Insignificant"}, {"measurement": "Percent inhibition", "setting": "[1]; Steroids, 4 receptors tested", "value": "Insignificant"}, {"measurement": "comment on hERG inhibition", "setting": "hERG; hERG FastPatch, 0.008-25 μM", "value": "No concentration-dependent"}, {"measurement": "IC50", "setting": "hERG; hERG FastPatch, test conc 0.008-25 μM (SP16), 0.01-10 μM (Quinidine)", "value": "> 25", "unit": "µM"}, {"measurement": "hERG inhibition", "setting": "hERG; up to 25 μM", "value": "does not impact hERG activity; also recorded: does not inhibit hERG"}, {"measurement": "Last Time point", "setting": "[2]; normal rats", "value": 8.0}, {"measurement": "t1/2", "setting": "[2]; normal rats", "value": 1.9, "unit": "h"}, {"measurement": "Cmax", "setting": "[2]; three normal rats, plasma", "value": 2500, "unit": "ng/mL"}, {"measurement": "T1/2 (half-life)", "setting": "[2]; three normal rats, plasma", "value": 1.9, "unit": "h"}]}, {"compound": "hAAT: human alpha-1-antitrypsin, parent protein of SP16", "values": [{"measurement": "incidence / development of diabetes (two consecutive non-fasted glucose readings greater than 300 mg/dl)", "setting": "NOD mice", "value": "delayed and reduced the incidence of diabetes"}]}, {"compound": "V K F N K P A A A L M I E Q N T K (VKFNKPAAALMIEQNTK; listed as Homo sapiens) [SP43, alanine scanned SP16 peptide]", "values": [{"measurement": "anti-inflammatory effect when administered to a mouse model of sepsis (FIG. 10)", "setting": "LPS challenged mice", "value": "particularly good anti-inflammatory effect"}, {"measurement": "TNF-alpha levels in LPS challenged mice, alanine scanned SP16 peptides (FIG. 10B)", "setting": "LPS challenged mice", "value": "reduce TNF-alpha levels more than Dexamethasone"}]}, {"compound": "V K F N K P F V F A A A E Q N T K (VKFNKPFVFAAAEQNTK; listed as Homo sapiens) [SP46, alanine scanned SP16 peptide]", "values": [{"measurement": "anti-inflammatory effect when administered to a mouse model of sepsis (FIG. 10)", "setting": "LPS challenged mice", "value": "particularly good anti-inflammatory effect"}, {"measurement": "TNF-alpha levels in LPS challenged mice, alanine scanned SP16 peptides (FIG. 10B)", "setting": "LPS challenged mice", "value": "reduce TNF-alpha levels more than Dexamethasone"}]}, {"compound": "V K F A A A F V F L M I E Q N T K (VKFAAAFVFLMIEQNTK; listed as Homo sapiens) [SP40, alanine scanned SP16 peptide]", "values": [{"measurement": "anti-inflammatory effect when administered to a mouse model of sepsis (FIG. 10)", "setting": "LPS challenged mice", "value": "particularly good anti-inflammatory effect"}, {"measurement": "TNF-alpha levels in LPS challenged mice, alanine scanned SP16 peptides (FIG. 10B)", "setting": "LPS challenged mice", "value": "reduce TNF-alpha levels more than Dexamethasone"}]}, {"compound": "A A A N K P F V F L M I E Q N T K (AAANKPFVFLMIEQNTK; listed as Homo sapiens) [SP37, SP16 with residues 1-3 substituted with alanines]", "values": [{"measurement": "impact on TLR-2 signaling, alanine scan, FIG. 12/13", "setting": "TLR-2", "value": "no impact on TLR2"}]}]}
